Results as given in publication PMC7408072 (Pharmaceutics, 2020).
Peptide text beside a SMILES is read from it. * marks the point of attachment. 5TAMRA = CN(C)c1ccc2c(c1)Oc1cc(N(C)C)ccc1C21OC(=O)c2cc(C(=O)*)ccc21

Experiments:
[1] = tested on: filter-grown BCECs co-cultured with rat astrocytes; test: Cellular viability, XTT assay; type: cell-based; conditions: 100 µM peptide, 3 h, bovine BCEC/rat astrocyte co-culture, N = 3, n = 3
Procedure: Briefly, the XTT labelling mixture was prepared by mixing electron coupling reagent with XTT labelling reagent at a 1:50 ratio. After peptide incubation, the monolayers were washed twice with 37 °C hHBSS. We applied 300 µL and 1 mL 37 °C hHBSS to the apical and basolateral compartments, respectively, prior to the addition of 150 µL XTT labelling mixture. The filters were incubated at 37 °C with horizontal shaking (90 rpm) for 1 h. Two 100 µL samples were withdrawn from the apical compartments and the absorbance measured at 466 nm using a SPECTROstar Nano plate reader (BMG Labtech, Offenburg, Germany). The relative cell viability was calculated as follows: Relative viability (%)=Asample−ASDS/Abuffer−ASDS×100% where Asample is the absorbance of the test sample, ASDS is the absorbance of the negative control (100% dead cells), and Abuffer is the absorbance of the positive control (100% viable cells).

[2] = tested on: primary bovine brain capillary endothelial cells co-cultured with primary rat astrocytes; test: Peptide stability on the in vitro bovine BBB model; type: in vitro ADME; conditions: FBS-free differentiation medium, 50 µM peptide, bovine BCEC/rat astrocyte co-culture, 37 °C, 90 rpm, HPLC C18, 220 and 543 nm, mean ± SD, N = 3
Procedure: BCECs co-cultured with rat astrocytes: a batch of capillary suspension was thawed and the DMSO removed by centrifugation in DMEM complete at 500× g for 5 min at room temperature. The pellet was re-suspended in DMEM complete and transferred to a culture flask (T75) coated with collagen and fibronectin (both 0.01 mg/mL in PBS). The capillary fragments were allowed to settle for 4–6 h in a humidified incubator (37 °C, 10% CO2) before changing the media to growth medium(+) (DMEM complete/ACM (1:1) with 125 µg/mL heparin) supplemented with 4 µg/mL pyromycin. On day 3, the BCECs received fresh growth medium(+) and rat astrocytes were seeded on the bottom of collagen and fibronectin coated (both 0.1 mg/mL in PBS) Transwell® plate permeable supports (Corning, Corning, NY, USA; 120,000 cells/1.12 cm^2 support with 0.4 µm pore size) in DMEM complete (37 °C, 10% CO2). On day 5, the media in the Transwell® plate was replaced by growth medium(-) (DMEM complete with 125 µg/mL heparin) and the endothelial cells detached from the flask using trypsin-EDTA (Thermo Fischer Scientific, Bedford, MA, USA). The remaining trypsin-EDTA was removed by centrifugation in DMEM complete at 1070× g for 5 min at room temperature. The endothelial cells were re-suspended in growth medium(-) and seeded on the apical side of the Transwell® plate permeable supports (100,000 cells/support). On day 8, the medium was changed to differentiation medium (DMEM containing 50 mM N-Tris-(hydroxymethyl)methyl-2-aminoethanesulfonic acid (TES), 10% FBS, 1% non-essential amino acids, 100 µg/mL penicillin/streptomycin (100 U/mL), 2 mM L-glutamine, 312.5 µM 8-(4-CPT)cyclic adenosine monophosphate, 0.5 µM dexamethasone, and 17.5 µM RO-20-1724). On day 11, the bovine BBB model was ready for use as evident by the measured transendothelial electrical resistance (TEER) values for each filter prior to experimental start.
Stability on the in vitro bovine BBB model: the differentiation medium was gently aspirated from the BCEC monolayers and replaced with 300 and 600 µL of 37 °C FBS-free differentiation medium containing 50 µM peptide on the luminal and abluminal side, respectively. The cells were incubated at 37 °C with horizontal shaking (90 rpm) for 4 h. Samples (10 µL) were withdrawn at 0, 10, 20, 30, 45, 60, 120, 180, and 240 min and two volumes of ice-cold ACN were immediately added prior to analysis by HPLC using an AdvanceBio Peptide Map column (C18, 4.6 × 150 mm, 2.7 µm particle size; Agilent, Glostrup, Denmark) connected to a Prominence system (LC-20 AD, SIL20 AC, SPD-M20A PDA, and CTO-20A modules; Shimadzu, Kyoto, Japan). Mobile phase A consisted of 95% ultrapure water and 5% ACN with 0.1% TFA and mobile phase B of 95% ACN and 5% ultrapure water with 0.1% TFA. […]

[3] = tested on: primary mouse BCECs in co-culture with primary rat astrocytes; test: Transport and cellular accumulation (mouse BBB model); type: in vitro ADME; conditions: 100 µM peptide, 3 h, TAMRA fluorescence; for transendothelial permeation of the mouse BBB model compared to TAMRA-NR2B9c: N = 3, n = 3 (Figure S5A); for accumulation in the cell fraction of the mouse BBB model compared to TAMRA-NR2B9c: lysate, N = 3, n = 3 (Figure S5B)
Procedure: Generation of mouse BCEC monolayers in co-culture with rat astrocytes: the capillary fragments were allowed to settle for 2–3 h before changing the media to DMEM containing 10% FBS and pyromycin (4 µg/mL). On day 3, the media was changed to DMEM containing 10% FBS and rat astrocytes seeded on the bottom of collagen and fibronectin coated (both 0.01 mg/mL in PBS) Transwell® plate permeable supports (120,000 cells/1.12 cm^2 support with 0.4 µm pore size). On day 5, the media in the Transwell® plate was changed to Complete Mouse Endothelial Cell Medium (PELOBiotech, Planegg/Martinsried, Germany). The endothelial cells were detached from the flask using trypsin-EDTA. The remaining trypsin-EDTA was removed by centrifugation in DMEM containing 10% FBS at 500× g for 5 min at room temperature. The endothelial cells were re-suspended in Complete Mouse Endothelial Cell Medium and seeded on the apical side of the Transwell® plate permeable supports (100,000 cells/support). On day 8, the medium was changed to differentiation medium. On day 10, the mouse BBB model was ready for use as evident by the measured transendothelial electrical resistance (TEER) values for each filter prior experimental start.
Transport across bovine or mouse BCEC monolayers co-cultured with rat astrocytes was carried out over 3 h at 37 °C with horizontal shaking (90 rpm). TEER was measured at room temperature using an Endohm 12 cup (World Precision Instruments, Sarasota, FL, USA) connected to a Millicell-ERS device (Millipore, Bedford, MA, USA). TEER was measured before application of the peptides and after each experiment. The bovine model had initial TEER values ranging from 771 to 1332 Ω·cm^2, whereas the mouse model had initial TEER values ranging from 136 to 217 Ω·cm^2.
The withdrawn volume was replaced with media.
Transported peptide was calculated based on fluorescence using the same method as described for peptides applied to the bovine model. Subsequently, the peptide solutions were removed from the cells and the filters washed thrice with 4 °C hHBSS. To isolate the peptides accumulated in the cell fraction, the filter inserts were cut out and 250 µL of ice-cold lysis buffer added. The peptides were retrieved and quantified as described for the cell uptake fraction obtained following the permeation study using the bovine model.

| SMILES | cell viability compared to media-treated control cells [1] | % remaining after 4 h of luminal incubation on the BCECs [2] | transendothelial permeation of the mouse BBB model compared to TAMRA-NR2B9c [3] | accumulation in the cell fraction of the mouse BBB model compared to TAMRA-NR2B9c [3] |
| --- | --- | --- | --- | --- |
| CC[C@H](C)[C@H](NC(=O)[C@H](CO)NC(=O)[C@H](CO)NC(=O)[C@H](CC(C)C)NC(=O)[C@H](CCCCN)NC(=O)c1ccc2c(c1)C(=O)OC21c2ccc(N(C)C)cc2Oc2cc(N(C)C)ccc21)C(=O)N[C@@H](CCC(=O)O)C(=O)N[C@@H](CO)C(=O)N[C@@H](CC(=O)O)C(=O)N[C@H](C(=O)O)C(C)C [TAMRA-NR2B9c] (5TAMRA-KLSSIESDV-OH) | did not decrease cell viability | 95.7% ± 1.6% |  |  |
| CC[C@H](C)[C@H](NC(=O)CCOCCOCCN(CCOCCOCCC(=O)N[C@H](C(=O)N[C@@H](CCC(=O)O)C(=O)N[C@H](C(=O)N[C@@H](CC(=O)O)C(=O)N[C@H](C(=O)O)C(C)C)[C@@H](C)O)[C@@H](C)CC)C(=O)[C@H](CCCNC(=N)N)NC(=O)[C@H](CCCNC(=N)N)NC(=O)[C@H](CCCNC(=N)N)NC(=O)[C@H](CCC(N)=O)NC(=O)[C@H](CCCNC(=N)N)NC(=O)[C@H](CCCNC(=N)N)NC(=O)[C@H](CCCCN)NC(=O)[C@H](CCCCN)NC(=O)[C@H](CCCNC(=N)N)NC(=O)CNC(=O)[C@H](Cc1ccc(O)cc1)NC(=O)c1ccc2c(c1)C(=O)OC21c2ccc(N(C)C)cc2Oc2cc(N(C)C)ccc21)C(=O)N[C@@H](CCC(=O)O)C(=O)N[C@H](C(=O)N[C@@H](CC(=O)O)C(=O)N[C@H](C(=O)O)C(C)C)[C@@H](C)O [TAMRA-Tat-N-dimer] | slight, but non-significant, decrease | 85.0% ± 6.0% | lower |  |
| CC[C@H](C)[C@H](NC(=O)[C@H](CO)NC(=O)[C@H](CO)NC(=O)[C@H](CC(C)C)NC(=O)[C@H](CCCCN)NC(=O)[C@H](CCCNC(=N)N)NC(=O)[C@H](CCCNC(=N)N)NC(=O)[C@H](CCCNC(=N)N)NC(=O)[C@H](CCC(N)=O)NC(=O)[C@H](CCCNC(=N)N)NC(=O)[C@H](CCCNC(=N)N)NC(=O)[C@H](CCCCN)NC(=O)[C@H](CCCCN)NC(=O)[C@H](CCCNC(=N)N)NC(=O)CNC(=O)[C@H](Cc1ccc(O)cc1)NC(=O)c1ccc2c(c1)C(=O)OC21c2ccc(N(C)C)cc2Oc2cc(N(C)C)ccc21)C(=O)N[C@@H](CCC(=O)O)C(=O)N[C@@H](CO)C(=O)N[C@@H](CC(=O)O)C(=O)N[C@H](C(=O)O)C(C)C [TAMRA-Tat-NR2B9c] (5TAMRA-YGRKKRRQRRRKLSSIESDV-OH) | slight, but non-significant, decrease | 58.6% ± 13.1% | to a greater extent than TAMRA-NR2B9c | to a greater extent than TAMRA-NR2B9c |
| CN(C)c1ccc2c(c1)Oc1cc(N(C)C)ccc1C21OC(=O)c2cc(C(=O)N[C@@H](Cc3ccc(O)cc3)C(=O)NCC(=O)N[C@@H](CCCNC(=N)N)C(=O)N[C@@H](CCCCN)C(=O)N[C@@H](CCCCN)C(=O)N[C@@H](CCCNC(=N)N)C(=O)N[C@@H](CCCNC(=N)N)C(=O)N[C@@H](CCC(N)=O)C(=O)N[C@@H](CCCNC(=N)N)C(=O)N[C@@H](CCCNC(=N)N)C(=O)N[C@@H](CCCNC(=N)N)C(=O)O)ccc21 [TAMRA-Tat] | slight, but non-significant, decrease | 76.9% ± 5.6% | similar | to a greater extent than TAMRA-NR2B9c |
